Reference: the CheMixHub viscosity set

Test: xn = mol fraction of the nth substance listed

CCCCOCCOCCOCCCC + CCCO
298.15 K, 101.33 kPa
Details | viscosity [mPa·s]
x1 = 0.0034 | 1.944
x1 = 0.0097 | 1.937
x1 = 0.0158 | 1.93
x1 = 0.0252 | 1.917
x1 = 0.0426 | 1.895
x1 = 0.0734 | 1.866
x1 = 0.0979 | 1.849
x1 = 0.1509 | 1.832
x1 = 0.1955 | 1.824
x1 = 0.2419 | 1.827
x1 = 0.2937 | 1.837
x1 = 0.3481 | 1.851
x1 = 0.3959 | 1.868
x1 = 0.4376 | 1.884
x1 = 0.4827 | 1.901
x1 = 0.54 | 1.925
x1 = 0.5983 | 1.949
x1 = 0.6416 | 1.968
x1 = 0.6954 | 1.99
x1 = 0.7531 | 2.016
x1 = 0.8095 | 2.039
x1 = 0.8656 | 2.061
x1 = 0.9083 | 2.079
x1 = 0.9447 | 2.096
x1 = 0.9742 | 2.111

NCCNCCN + CCN(CC)CCO
viscosity [mPa·s], 101 kPa
Details | x1 = 0.1 | x1 = 0.1999 | x1 = 0.2999 | x1 = 0.3997 | x1 = 0.4997 | x1 = 0.5997 | x1 = 0.6996 | x1 = 0.7992 | x1 = 0.8989
293.15 K | 6.36 | 7.21 | 8 | 8.32 | 8.45 | 8.11 | 7.8 | 7.34 | 7.02
303.15 K | 4.38 | 4.95 | 5.25 | 5.5 | 5.64 | 5.52 | 5.31 | 5.08 | 4.89
313.15 K | 3.14 | 3.46 | 3.72 | 3.92 | 4.02 | 3.94 | 3.8 | 3.62 | 3.52
323.15 K | 2.28 | 2.54 | 2.72 | 2.9 | 3 | 2.95 | 2.88 | 2.77 | 2.69

NCCNCCN + CCO
viscosity [mPa·s], 100 kPa
Details | x2 = 0.1023 | x2 = 0.2001 | x2 = 0.3566 | x2 = 0.492 | x2 = 0.6001 | x2 = 0.6952 | x2 = 0.7703 | x2 = 0.8378 | x2 = 0.897 | x2 = 0.9523
298.15 K | 5.92 | 5.97 | 5.63 | 5.02 | 4.36 | 3.7 | 3.08 | 2.51 | 1.97 | 1.49
303.15 K | 4.85 | 4.98 | 4.76 | 4.25 | 3.74 | 3.17 | 2.69 | 2.2 | 1.76 | 1.34
308.15 K | 4.21 | 4.33 | 4.13 | 3.69 | 3.24 | 2.79 | 2.4 | 1.99 | 1.62 | 1.24

Oc1cccc(O)c1 + CCO
Details | viscosity [mPa·s]
323.15 K, 101 kPa, x1 = 0.07 | 1.265

Oc1cccc2ccccc12 + CCO
viscosity [mPa·s], 101 kPa
Details | x1 = 0.03 | x1 = 0.06 | x1 = 0.09 | x1 = 0.12 | x1 = 0.15
293.15 K | 1.425 | 1.638 | 1.885 | 2.205 | 2.538
303.15 K | 1.158 | 1.337 | 1.523 | 1.733 | 1.968
313.15 K | 0.964 | 1.103 | 1.251 | 1.417 | 1.6
323.15 K | 0.795 | 0.91 | 1.048 | 1.186 | 1.339

CCCCOCCOCCOCCCC + CCOC(=O)OCC
viscosity [mPa·s], 101.3 kPa
Details | 298.15 K | 308.15 K | 318.15 K
x1 = 0.0131 | 0.771 | 0.675 | 0.587
x1 = 0.0338 | 0.806 | 0.699 | 0.603
x1 = 0.0756 | 0.864 | 0.751 | 0.638
x1 = 0.1533 | 0.976 | 0.842 | 0.707
x1 = 0.2472 | 1.118 | 0.949 | 0.792
x1 = 0.3392 | 1.245 | 1.056 | 0.871
x1 = 0.4137 | 1.359 | 1.14 | 0.94
x1 = 0.425 | 1.379 | 1.153 | 0.95
x1 = 0.4831 | 1.457 | 1.22 | 1.002
x1 = 0.6085 | 1.63 | 1.357 | 1.105
x1 = 0.7927 | 1.892 | 1.556 | 1.255
x1 = 0.8959 | 2.018 | 1.656 | 1.328
x1 = 0.954 | 2.116 | 1.734 | 1.383

Oc1cccc(O)c1O + CC[N+](CC)(CC)CC.[Br-]
101.3 kPa, x2 = 0.333
Details | viscosity [mPa·s]
293.15 K | 46000
298.15 K | 32000
303.15 K | 23000
308.15 K | 16000
313.15 K | 10500
318.15 K | 7500
323.15 K | 5500

C1=Cc2cccc3cccc1c23 + CO
viscosity [mPa·s], 101 kPa
Details | 298.15 K | 303.15 K | 308.15 K | 313.15 K | 318.15 K
x1 = 0.00471 | 0.5715 | 0.5301 | 0.494 | 0.4598 | 0.436
x1 = 0.00731 | – | 0.5362 | 0.5036 | 0.4714 | 0.4405

CC(=O)[O-].C[N+]1(CC2CO2)CCCC1=O (stereo unspecified) + CO
viscosity [mPa·s], 101 kPa
Details | 293.15 K | 298.15 K | 303.15 K | 308.15 K | 313.15 K
x1 = 0.036 | 0.71 | 0.66 | 0.62 | 0.57 | 0.52
x1 = 0.0744 | 0.92 | 0.85 | 0.78 | 0.72 | 0.73
x1 = 0.1088 | 1.12 | 1.03 | 0.94 | 0.87 | 0.8
x1 = 0.2024 | 1.69 | 1.52 | 1.38 | 1.26 | 1.15
x1 = 0.3033 | 2.35 | 2.09 | 1.87 | 1.69 | 1.53
x1 = 0.4042 | 3.02 | 2.66 | 2.36 | 2.1 | 1.89
x1 = 0.504 | 3.68 | 3.22 | 2.83 | 2.51 | 2.24
x1 = 0.6015 | 4.28 | 3.71 | 3.25 | 2.86 | 2.54
x1 = 0.7036 | 4.91 | 4.23 | 3.68 | 3.23 | 2.85
x1 = 0.8051 | 5.51 | 4.72 | 4.09 | 3.57 | 3.14
x1 = 0.9086 | 6.14 | 5.21 | 4.49 | 3.9 | 3.42

CCCCO + CO
101.33 kPa
Details | viscosity [mPa·s]
298.15 K, x2 = 0.1362 | 2.2
298.15 K, x2 = 0.2224 | 1.966
298.15 K, x2 = 0.302 | 1.768
298.15 K, x2 = 0.409 | 1.528
298.15 K, x2 = 0.5154 | 1.312
298.15 K, x2 = 0.6105 | 1.139
298.15 K, x2 = 0.693 | 0.999
298.15 K, x2 = 0.8012 | 0.833
298.15 K, x2 = 0.9004 | 0.69
303.15 K, x2 = 0.2846 | 1.602
303.15 K, x2 = 0.3614 | 1.45
303.15 K, x2 = 0.4291 | 1.311
303.15 K, x2 = 0.492 | 1.191
303.15 K, x2 = 0.6007 | 1.038
303.15 K, x2 = 0.6929 | 0.8879
303.15 K, x2 = 0.7719 | 0.7812
303.15 K, x2 = 0.8404 | 0.6887
303.15 K, x2 = 0.9003 | 0.6154

CCCCCCCC[N+](C)(CCCCCCCC)CCCCCCCC.[Cl-] + COC(=O)OC
Details | viscosity [mPa·s]
298.15 K, 101 kPa, x1 = 0.65 | 534.7
